Data: patent publication US20260108546A1 (ELI LILLY AND COMPANY, priority 2024, published 2026)

Molecular target: T1, hGIP-R (Homo sapiens, UniProt P48546)
T1 construct: expressed in transfected cells; host or cells: HEK-293 clonal cell lines
T1 sequence (P48546 22-466): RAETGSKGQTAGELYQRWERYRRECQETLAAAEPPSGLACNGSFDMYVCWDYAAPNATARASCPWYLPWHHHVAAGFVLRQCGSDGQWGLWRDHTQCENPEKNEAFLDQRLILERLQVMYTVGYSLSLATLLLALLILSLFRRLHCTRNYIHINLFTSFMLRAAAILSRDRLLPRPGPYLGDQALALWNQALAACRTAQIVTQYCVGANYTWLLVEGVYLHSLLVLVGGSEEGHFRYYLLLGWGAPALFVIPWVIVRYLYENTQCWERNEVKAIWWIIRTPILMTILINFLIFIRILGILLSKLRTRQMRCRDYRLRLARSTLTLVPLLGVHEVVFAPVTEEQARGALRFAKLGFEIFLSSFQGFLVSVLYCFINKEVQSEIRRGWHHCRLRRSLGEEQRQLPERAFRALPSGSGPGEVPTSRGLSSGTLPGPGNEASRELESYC
Test: Functional hGIP-R Assay (cAMP formation, HTRF)
Assay type: cell-based
Conditions: for Emax: cAMP efficacy, percent of maximal response to GIP(1-42)OH, 37° C., 0.1% bovine casein, arithmetic mean ± SEM; for EC50: cAMP potency, HEK-293 cells expressing hGIP-R, incubated at 37° C. in the presence of 0.1% bovine casein, geometric mean, read-out: Human GIP-R EC50, nM (SEM, n)
In short: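 Relative EC50 and Emax came from four-parameter logistic fits of cAMP as a percent of the human GIP (1-42) OH maximal response. The cAMP was measured by competitive HTRF after 30 min, 37 °C compound exposure of hGIP-R HEK-293 clones in IBMX (250 μM)-containing medium.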

Cn1cc2cc(-c3ccc([C@H]4C[C@@]45CCN([C@H](Cc4cnn(C(F)F)c4)C(=O)NC(C)(C)Cn4nc(C(F)(F)F)cc4-c4cccn(CC(N)=O)c4=O)C5=O)cc3)cnc2n1 [Example 126, (R)-N-(1-(5-(1-(2-Amino-2-oxoethyl)-2-oxo-1,2-dihydropyridin-3-yl)-3-(trifluoromethyl)-1H-pyrazol-1-yl)-2-methylpropan-2-yl)-3-(1-(difluoromethyl)-1H-pyrazol-4-yl)-2-((1R,3R)-1-(4-(2-methyl-2H-pyrazolo[3,4-b]pyridin-5-yl)phenyl)-4-oxo-5-azaspiro[2.4]heptan-5-yl)propanamide]
Emax: 93.6 ± 1.06%
EC50: 42.3 nM

CN(C(=O)[C@H]1C[C@@H]1c1ccc(NC(=O)C2CCC(F)(F)CC2)cc1)[C@H](Cc1cnn(C)c1)C(=O)NC(C)(C)Cn1nc(C(F)(F)F)cc1-c1ccc(=O)n(C)c1 [Example 35, 4,4-Difluoro-N-(4-((1S,2S)-2-(methyl((R)-1-((2-methyl-1-(5-(1-methyl-6-oxo-1,6-dihydropyridin-3-yl)-3-(trifluoromethyl)-1H-pyrazol-1-yl)propan-2-yl)amino)-3-(1-methyl-1H-pyrazol-4-yl)-1-oxopropan-2-yl)carbamoyl)cyclopropyl)phenyl)cyclohexane-1-carboxamide]
Emax: 75 ± 4.1%
EC50: 135 nM

Cn1cc(C[C@@H](NC(=O)C2CC2c2ccc(-c3cnc4nccn4c3)cc2C(F)(F)F)C(=O)NC(C)(C)Cc2ccc(F)cc2)cn1 (single isomer, unassigned; isomer 2) [Example 29]
Emax: 99.4%
EC50: 79.8 nM

CC(C)(Cc1ccc(F)cn1)NC(=O)[C@@H](Cc1cnc2ncccn12)NC(=O)[C@H]1C[C@@H]1c1ccc(-c2cnc3nc(C(F)(F)F)cn3c2)cc1 [Example 85, (1S,2S)-N-((R)-1-((1-(5-Fluoropyridin-2-yl)-2-methylpropan-2-yl)amino)-3-(imidazo[1,2-a]pyrimidin-3-yl)-1-oxopropan-2-yl)-2-(4-(2-(trifluoromethyl)imidazo[1,2-a]pyrimidin-6-yl)phenyl)cyclopropane-1-carboxamide]
Emax: 87 ± 0.761%
EC50: 41 nM

[2H]C([2H])([2H])N(C(=O)[C@H]1C[C@@H]1c1ccc(-c2cnc3nn(C)cc3c2)nc1C(F)(F)F)[C@H](Cc1cnn(C(F)F)c1)C(=O)NC(C)(C)Cn1nc(C(F)(F)F)cc1-c1cc(F)c(=O)n(C)c1 [Example 136, (1S,2S)-N—((R)-3-(1-(Difluoromethyl)-1H-pyrazol-4-yl)-1-((1-(5-(5-fluoro-1-methyl-6-oxo-1,6-dihydropyridin-3-yl)-3-(trifluoromethyl)-1H-pyrazol-1-yl)-2-methylpropan-2-yl)amino)-1-oxopropan-2-yl)-N-(methyl-d3)-2-(6-(2-methyl-2H-pyrazolo[3,4-b]pyridin-5-yl)-2-(trifluoromethyl)pyridin-3-yl)cyclopropane-1-carboxamide]
Emax: 74.6 ± 6.02%
EC50: 10.8 nM

Cn1cc(-c2cc(C(F)(F)F)nn2CC(C)(C)NC(=O)[C@@H](Cc2cnn(C(F)F)c2)NC(=O)[C@H]2C[C@@H]2c2ccc3c(c2)n(C)c(=O)n3C)cc(F)c1=O [Example 182]
Emax: 30.4 ± 2.08%
EC50: 41.4 nM

Cn1cc(C[C@@H](NC(=O)[C@H]2C[C@@H]2c2ccc(-c3cnc4nc(C(F)(F)F)cn4c3)cc2)C(=O)NC(C)(C)Cn2nc(C(F)(F)F)cc2-c2cn[nH]n2)cn1 [Example 26, (1S,2S)-N-((R)-1-((1-(5-(2H-1,2,3-Triazol-4-yl)-3-(trifluoromethyl)-1H-pyrazol-1-yl)-2-methylpropan-2-yl)amino)-3-(1-methyl-1H-pyrazol-4-yl)-1-oxopropan-2-yl)-2-(4-(2-(trifluoromethyl)imidazo [1,2-a]pyrimidin-6-yl)phenyl) cyclopropane-1-carboxamide]
Emax: 132 ± 15.5%
EC50: 17.4 nM

Cn1cc(C[C@@H](NC(=O)C2CC2c2ccc(-c3cnc4nn(C)cc4c3)s2)C(=O)NC(C)(C)Cn2nc(C(F)(F)F)cc2Br)cn1 (single isomer, unassigned; isomer 2) [Example 7]
Emax: 99.7 ± 0.756%
EC50: 246 nM

CNC(=O)Cn1cc(-c2cc(C(F)(F)F)nn2CC(C)(C)NC(=O)[C@@H](Cc2cnn(C(F)F)c2)N2CC[C@@]3(C[C@@H]3c3ccc(-c4cnc5nn(C)cc5c4)cc3)C2=O)cn1 [Example 127, (R)-3-(1-(Difluoromethyl)-1H-pyrazol-4-yl)-N-(2-methyl-1-(1′-(2-(methylamino)-2-oxoethyl)-5-(trifluoromethyl)-1′H,2H-[3,4′-bipyrazol]-2-yl)propan-2-yl)-2-((1R,3R)-1-(4-(2-methyl-2H-pyrazolo[3,4-b]pyridin-5-yl)phenyl)-4-oxo-5-azaspiro[2.4]heptan-5-yl)propanamide]
Emax: 56.1 ± 4.15%
EC50: 60.1 nM

COCc1cn2cc(-c3ccc([C@H]4C[C@@]45CCN([C@H](Cc4cnn(C(F)F)c4)C(=O)NC(C)(C)Cn4nc(C(F)(F)F)cc4-c4ccnc(C(C)(C)O)c4)C5=O)c(C)n3)cnc2n1 [Example 160, (R)-3-(1-(difluoromethyl)-1H-pyrazol-4-yl)-N-(1-(5-(2-(2-hydroxypropan-2-yl)pyridin-4-yl)-3-(trifluoromethyl)-1H-pyrazol-1-yl)-2-methylpropan-2-yl)-2-((1R,3R)-1-(6-(2-(methoxymethyl)imidazo[1,2-a]pyrimidin-6-yl)-2-methylpyridin-3-yl)-4-oxo-5-azaspiro[2.4]heptan-5-yl)propanamide]
Emax: 119 ± 3.76%
EC50: 1.24 nM

[2H]C([2H])([2H])n1cc(C[C@H](C(=O)NC(C)(C)Cn2nc(C(F)(F)F)cc2-c2ccc(C(C)(C)O)nc2)N2CC[C@@]3(C[C@@H]3c3ccc(-c4cnc5nn(C)cc5c4)cc3Cl)C2=O)cn1 [Example 194, (R)-2-((1S,3R)-1-(2-chloro-4-(2-methyl-2H-pyrazolo[3,4-b]pyridin-5-yl)phenyl)-4-oxo-5-azaspiro[2.4]heptan-5-yl)-N-(1-(5-(6-(2-hydroxypropan-2-yl)pyridin-3-yl)-3-(trifluoromethyl)-1H-pyrazol-1-yl)-2-methylpropan-2-yl)-3-(1-(methyl-d3)-1H-pyrazol-4-yl)propanamide]
Emax: 64.1 ± 0.489%
EC50: 0.567 nM

COCc1cn2cc(-c3ccc([C@H]4C[C@@]45CCN([C@H](Cc4cnn(C(F)F)c4)C(=O)NC(C)(C)Cn4nc(C(F)(F)F)cc4-c4ccc(C(C)(C)O)nc4)C5=O)c(C)n3)cnc2n1 [Example 168, (R)-3-(1-(difluoromethyl)-1H-pyrazol-4-yl)-N-(1-(5-(6-(2-hydroxypropan-2-yl)pyridin-3-yl)-3-(trifluoromethyl)-1H-pyrazol-1-yl)-2-methylpropan-2-yl)-2-((1R,3R)-1-(6-(2-(methoxymethyl)imidazo[1,2-a]pyrimidin-6-yl)-2-methylpyridin-3-yl)-4-oxo-5-azaspiro[2.4]heptan-5-yl)propanamide]
Emax: 110%
EC50: 1.81 nM

COC(=O)c1cc(C(F)(F)F)nn1CC(C)(C)NC(=O)[C@@H](Cc1cnn(C)c1)NC(=O)[C@H]1C[C@@H]1c1ccc(-c2cnc3nc(C(F)(F)F)cn3c2)cc1 [Example 24, Methyl 1-(2-methyl-2-((R)-3-(1-methyl-1H-pyrazol-4-yl)-2-((15,2S)-2-(4-(2-(trifluoromethyl)imidazo [1,2-a]pyrimidin-6-yl)phenyl)cyclopropane-1-carboxamido)propanamido)propyl)-3-(trifluoromethyl)-1H-pyrazole-5-carboxylate]
Emax: 133 ± 0.579%
EC50: 15.8 nM
